Key:
[1] = Ketone blood concentration after ingestion of 1,3-butanediol (FIG. 2, FIG. 3); format: in vivo, person; details: for increase in ketones over pre consumption ketone levels: one person (D), two people racemic
Text: FIG. 2 depicts an exemplary ketone blood concentration after ingestion of racemic 1,3-butanediol.
FIG. 3 depicts a ketone blood concentration after one person ingested (D) 1,3-butanediol, compared to the results of two people ingesting racemic 1,3-butanediol.
It should also be noted that only the D enantiomer is active in the body as a source of extracellular fuel that is then transported into the cells. Ketone blood level meters currently on the market only measure the blood level of the D enantiomer. Products containing racemic salts require two to three times the amount of sodium, calcium and potassium for an equal amount of D-β-hydroxybutyrate readings in the blood. A reason the potential levels of D-β-hydroxybutyrate in the blood is over double with chiral solutions is because the body has to waste energy and uses up some of the D-β-hydroxybutyrate to burn off the unnatural L-O-hydroxybutyrate.
FIG. 2 depicts exemplary results from ingestion of 33 ml racemic 1,3-butanediol. […] For example, as shown, the chiral form provided an increase in ketones of approximately 3.2 mmol/L whereas the racemic form provided approximately 0.9-1.0 mmol/L increases over pre consumption ketone levels.

[2] = cited from earlier work

Compound: CC(O)CCO (racemic) [racemic 1,3-butanediol, 1,3-butanediol]
- increase in ketones over pre consumption ketone levels ([1]; ingestion of 33 ml, FIG. 3): 0.9 to 1.0 mmol/L
- ketone blood concentration achieved ([1]; ingestion of 33 ml, over a 105-minute period, FIG. 2): ≤ 1 mmol/L

Compound: CC(O)CC(=O)[O-].[Na+] (racemic) [racemic sodium β-hydroxybutyrate, sodium β-hydroxybutyrate]
- ketones level a person would be limited to ([2]; consuming at about 100-200% of the RDA for sodium): approximately 0.5 mmol/L

Compound: CC(O)CCO (stereo not drawn) [(D)-1,3-butanediol]
- D-β-hydroxybutyrate in the blood, (D) relative to racemic 1,3-butanediol ([1]; 33 ml of each, FIG. 3): over double
- increase in ketones over pre consumption ketone levels ([1]; ingestion of 33 ml, FIG. 3): approximately 3.2 mmol/L

Compound: CC(O)CC(=O)[O-].[K+] (racemic) [racemic potassium β-hydroxybutyrate, potassium β-hydroxybutyrate]
- ketones level a person would be limited to reaching ([2]; consuming at about 100% of potassium's RDA): approximately 0.5 mmol/L

From patent US20180055797A1, “NON-RACEMIC KETONE SALTS FOR RAPID-ONSET NUTRITIONAL KETOSIS AND METABOLIC THERAPY” (KetoneAid Inc., priority 2016, published 2018)
